Assay results reported in patent US20150133516A1, “Methods and Compositions for Treating ADHD” (priority 2013, published 2015).

Tests used:
[1] = test system: spontaneously hypertensive rats (SHR); test: delayed gratification response paradigm in SHR animal model of ADHD; assay type: in vivo, rat; conditions: 5, 10, 25 or 50 mg/kg over twenty-one days
Excerpt: In this study, spontaneously hypertensive rats (SHR) are used as an animal model for ADHD. The SHR animal model is described in Russell et al., 2000, Behavioral Brain Research, 117: 69-74; Russell, 2001, Metab. Brain Dis., 16: 143-149; and Sagvolden et al., 1992, Behav. Neural Biol., 58: 103-112. The study consists of two groups of rats: normal and SHR. Each group is further divided into two subgroups: placebo and AR08. The AR08 subgroup is further divided into four subgroups and each subgroup is administered 5, 10, 25, or 50 mg/kg of AR08. The AR08 is administered to the rats over a period of twenty-one days. The rats are from the normal and SHR groups are trained in the delayed gratification response paradigm as described in Charrier et al., 1996, Pharmacology and Biochemistry and Behavior, 54: 149-157. In this paradigm, rats learn to choose between five food pellets delivered after 30 seconds and one food pellet delivered after 5 seconds. Normal rats learn to choose the five food pellets delivered after 30 seconds at a higher frequency.

[2] = test system: α2 adrenergic receptors; test: alpha 2/alpha1 functional selectivity (in vitro functional potencies); assay type: biochemical
Procedure: (§1) The pharmacological activity and selectivity of these compounds can be determined using published test procedures. […] (See, e.g., The Alpha-2 Adrenergic Receptors, L. E. Limbird, ed., Humana Press, Clifton, N.J.) The following in vivo assays are typically conducted in rodents or other species. Central nervous system activity is determined by measuring locomotor activity as an index of sedation. (See, e.g., Spyraki, C. & H. Fibiger, “Clonidine-induced Sedation in Rats: Evidence for Mediation by Postsynaptic Alpha-2 Adrenoreceptors”, Journal of Neural Transmission, Vol. 54 (1982), pp. 153-163). Nasal decongestant activity is measured using rhinomanometry as an estimate of nasal airway resistance. […] Antiglaucoma activity is determined by measuring intraocular pressure. […] Antidiarrheal activity is determined by measuring the ability of the compounds to inhibit prostaglandin-induced diarrhea. […] Efficacy in treating irritable bowel syndrome is determined by measuring the ability of compounds to reduce the stress-induced increase in fecal output. […] Antiasthma activity is determined by measuring the effect of the compound on bronchoconstriction associated with pulmonary challenges such as inhaled antigens. […] Activity in cough is determined by measuring the number and latency of the cough response to respiratory challenges such as inhaled citric acid. […]

[3] = test system: α2 receptors; test: receptor binding affinities / selectivity against other molecular targets
Procedure: as §1

[4] = clinical; conditions: human, in vivo

With Cc1c(N=C2NCCN2)cc(C#N)c2[nH]cnc12 [AR08, N-(4,5-Dihydro-1H-imidazol-2-yl)-7-cyano-4-methyl-1H-benzimidazol-5-amine acetate] the “amount of time required by SHR rats to choose five food pellets delivered after 30 seconds at a higher frequency” value [1] was “reduced”.

For Cc1c(N=C2NCCN2)cc(C#N)c2[nH]cnc12 [Compound I, N-(4,5-Dihydro-1H-imidazol-2-yl)-7-cyano-4-methyl-1H-benzimidazol-5-amine], the “alpha 2/alpha1 functional selectivity” value [2] was “about 70 fold”, the “binding to targets other than α2 receptors” value [3] was “no relevant binding” and the “selectivity for the α2 adrenergic receptors” value ([3]; versus a wide range of other molecular targets) was “highly selective”. It also gave a half-life [4] of 26 to 40 h.
